# Source: paper PMC11375437, “Selective labelling of GBA2 in cells with fluorescent β-D-arabinofuranosyl cyclitol aziridines” (Chemical Science, 2024)
# Assays:
# [1] = tested on: GBA2; test: Labelling of GBA2 orthologue in zebrafish larvae homogenates; type: biochemical, zebrafish (Danio rerio); details: 1 h at 37 °C; ABP 3 and 7 at 1 μM, ABP 4 and 5 at 2.5 μM
# Description: (§1) GBA2 orthologs are highly conserved among different species. […] The labelling capability of β-D-Araf aziridine ABPs toward GBA2 orthologs in these species was therefore evaluated. Homogenates of zebrafish larvae or mice brain homogenates were incubated with β-D-Araf ABPs 3–5 or broad-spectrum ABP 7 (Fig. 4).
# (§2) Fig. 4 Fluorescent gel images of selective labelling of GBA2 orthologues by β-D-Araf aziridine ABPs in different species. Cyclophellitol-aziridine ABP 7 (1 μM) and β-D-Araf ABPs (ABP 3 at 1 μM and ABP 4 and 5 at 2.5 μM) were incubated with homogenates of zebrafish (15 μg total protein) and mice brain (15 μg total protein) for 1 h at 37 °C. […]
# (§3) were transferred to nitrocellulose membrane for western blotting. Ponceau S staining was used to show total protein loading. […]
# (§4) 2.12 Reactivity of β-D-Araf aziridines towards GBA2 orthologue in other species β-D-Araf aziridine ABP 3-5 or ABP 7 was incubated with homogenates of zebrafish (Danio rerio) larvae or mice brain for 1 h at 37 °C. […] The zebrafish homogenates were passed through a desalting column (in the same way as described for the irreversibility evaluation above) to remove interference from biological pigments when scanning at λEX 473 nm and λEM ≥ 510 nm for BODIPY green fluorescence. […]
# [2] = biological target: T1, GBA2 (Mus musculus, UniProt Q69ZF3); test: Labelling of GBA2 orthologue in mice brain homogenates; type: biochemical; details: 1 h at 37 °C; ABP 3 and 7 at 1 μM, ABP 4 and 5 at 2.5 μM
# T1 construct: from tissue; host or cells: mouse brain homogenate
# T1 sequence (Q69ZF3 1-918): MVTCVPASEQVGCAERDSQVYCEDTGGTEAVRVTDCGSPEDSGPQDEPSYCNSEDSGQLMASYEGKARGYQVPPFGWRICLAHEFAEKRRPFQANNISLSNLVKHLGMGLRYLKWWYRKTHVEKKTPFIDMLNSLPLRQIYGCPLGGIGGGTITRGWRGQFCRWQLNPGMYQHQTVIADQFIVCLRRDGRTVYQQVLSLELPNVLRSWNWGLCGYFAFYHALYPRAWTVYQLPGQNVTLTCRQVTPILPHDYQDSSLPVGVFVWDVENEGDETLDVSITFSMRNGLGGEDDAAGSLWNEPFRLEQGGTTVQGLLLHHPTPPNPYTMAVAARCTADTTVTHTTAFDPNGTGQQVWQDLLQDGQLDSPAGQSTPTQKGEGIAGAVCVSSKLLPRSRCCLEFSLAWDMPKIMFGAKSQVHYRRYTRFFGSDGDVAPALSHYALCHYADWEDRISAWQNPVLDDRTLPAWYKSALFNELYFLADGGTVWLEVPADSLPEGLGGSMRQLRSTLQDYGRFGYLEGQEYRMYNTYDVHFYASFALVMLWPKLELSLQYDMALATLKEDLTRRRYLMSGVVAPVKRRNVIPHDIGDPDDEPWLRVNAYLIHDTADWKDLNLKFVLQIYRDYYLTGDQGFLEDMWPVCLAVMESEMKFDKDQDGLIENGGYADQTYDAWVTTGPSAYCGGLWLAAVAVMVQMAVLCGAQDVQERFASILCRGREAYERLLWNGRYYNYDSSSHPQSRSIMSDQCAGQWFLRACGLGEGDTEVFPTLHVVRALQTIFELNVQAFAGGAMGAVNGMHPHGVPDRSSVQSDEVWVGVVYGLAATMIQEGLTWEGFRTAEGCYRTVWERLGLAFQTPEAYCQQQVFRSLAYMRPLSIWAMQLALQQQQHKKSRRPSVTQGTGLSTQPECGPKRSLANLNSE
# Description: as §1, §2, §3, §4
compound,measurement,setting,value
CN1/C(=C/C=C/C=C/C2=[N+](CCCCCC(=O)NCc3cn(CCCCCCCCN4[C@@H]5[C@H](CO)[C@@H](O)[C@H](O)[C@@H](O)[C@@H]54)nn3)c3ccccc3C2(C)C)C(C)(C)c2ccccc21 (some centres unmarked) [ABP 7],Labelling selectivity in zebrafish larvae homogenates,[1],show cross-reactivity towards GBA1
same,Labelling selectivity in mice brain homogenates,[2],show cross-reactivity towards GBA1
